In PMC5614861 (Organic & biomolecular chemistry, 2017):
Where “and” joins values, the source holds several entries; their conditions need not be identical. Equal values may be shown once. Numbered stars: 1 amine (or outer) side, 2 acyl side, 3 side chain; on linkers, the order of the positions; unused ones are H or OH. Bridge positions count the residues as written; N and C are the ends. Square brackets hold non-standard residues; d marks the D form. Peptide text beside a SMILES is read from it. X2 = O=C([C@@H]1C[C@H](n2cc(C3=CC=C[CH]3[Fe][CH]3C=CC=C3)nn2)CN1[*:1])[*:2]; X1 = O=C([C@@H]1C[C@H](n2cc(-c3ccc(-c4cccs4)cc3)nn2)CN1[*:1])[*:2]

Key:
[1] = target: HIV-1 YU-2 gp120 binding to sCD4 (Human immunodeficiency virus type 1 group M subtype B, UniProt P35961); test: SPR competition assay, inhibition of gp120 binding to CD4; conditions: 250 nM YU-2 gp120, 25°C, PBS pH 7.4, triplicate
HOS.T4.R5 cells = test: Cytotoxicity / cell viability assay; type: cell-based; conditions: WST-1, 24 h post-exposure, highest concentration used 100 μM
[2] = target: monomeric wild type gp120 YU-2 (Human immunodeficiency virus type 1 group M subtype B, UniProt P35961); test: Isothermal titration calorimetry; type: binding, HIV-1; conditions: ITC, 25°C, 1× PBS pH 7.3
HIV-1Bal.01 = type: cell-based; conditions: cutoff 10 μM

CC[C@H](C)[C@@H]1NC(=O)[C@H](CC(N)=O)NC(=O)[C@@H](N)CC(=O)NCCCC[C@@H](C(N)=O)NC(=O)[C@H](Cc2c[nH]c3ccccc23)NC(=O)[C@@H]2C[C@H](n3cc(-c4ccc(-c5cccs5)cc4)nn3)CN2C1=O [cPT 36] (H-DNI[X1]WK-NH2; lactam 1-6)
Inhibition of gp120 binding to CD4 [1]: inhibited | Cytotoxicity (cell viability) (HOS.T4.R5 cells): no cytotoxicity was detected | ΔH [2]: -4.07 ± 0.06 kcal/mol | ΔS [2]: 0.0159 kcal/mol | −TΔS [2]: -4.74 kcal/mol

cPT 11
Activity designation in HIV-1Bal.01 infection inhibition assay (HIV-1Bal.01): weak (the compound showed weak inhibition (less than 50%) at 10 μM)

CC[C@H](C)[C@@H]1NC(=O)[C@H](CC(N)=O)NC(=O)[C@@H](N)CC(=O)NCCCC[C@@H](C(N)=O)NC(=O)[C@H](Cc2c[nH]c3ccccc23)NC(=O)[C@@H]2C[C@H](n3cc(C4=CC=C[CH]4[Fe][CH]4C=CC=C4)nn3)CN2C1=O (stereo partly drawn) [cPT 3] (H-DNI[X2]WK-NH2; lactam 1-6)
ΔH [2]: -5.96 kcal/mol and -5.96 ± 0.13 kcal/mol | ΔS [2]: 0.00922 kcal/mol | −TΔS [2]: -2.75 kcal/mol
